The source of these data is patent USRE39088E1, “Amide compounds and use of the same” (Japan Tobacco, Inc., priority 1995, dated 2006).

One may read the IC50 as the concentration at which inhibition is half-maximal. One may read the inhibition in vivo as the change of the read-out against control, counted positive when it falls. A lower inhibition in vivo goes with a response near the control.

The structures appear in SMILES notation. Counter-ions that a name gives are not always drawn. Like-named read-outs stand apart in the source and are kept apart here.

For experiment [1], the system named is IL-1. The experiment is described as follows: Suppression of production of inflammatory cytokines: IL-1 in LPS-stimulated human peripheral blood monocytes (ELISA). The class given is cell-based. Particulars: Monocyte, read-out: IC50 (μM) IL-1β. Here is the method:
(§1) Suppression of production of inflammatory cytokines
(§2) Thirty ml of human peripheral blood added with heparin was placed on Ficol-Paque (15 ml), and centrifuged at 400 G for 40 minutes at room temperature. The obtained monocyte fraction layers were collected and washed three times with E-MEM medium. The cells were adjusted to a final concentration of 0.5×10^5 cells/800 μl with RPMI-1640 medium containing 5% bovine fetal serum (2-mercaptoethanol), and seeded in a 24 well plant by 800 μl. A test sample (100 μl) was added and 100 μl of lipopolysarcharide (LPS, 100 μg/ml) was added one hour later. The supernatant was taken at 20 hours after stimulation with LPS, and amounts of various cytokines were determined using an ELISA kit.
(In general: In an ELISA, binding on a coated surface is turned into a signal by an enzyme label.)

The subject of experiment [2] is TNF α in the peritoneal fluid. Kind of experiment: Suppression of LPS-induced peritonitis. The class given is in vivo, male Balb/c mice. Particulars: test sample 50 mg/kg from the tail vein 60 minutes before LPS i.p.; TNF α in peritoneal fluid one hour after LPS, relative to control group; ** = p<0.01 from control. Here is the method:
Suppression of LPS-induced peritonitis
LPS (30 μg/ml, 1 ml) prepared with physiological saline containing 0.5% CMC (carboxymethylcellulose) was infra-peritoneally injected into male Balb/c mice to induce-peritonitis. One hour later, the mice were killed with carbon dioxide, and the amount of TNF α in the peritoneal fluid was determined using an ELISA kit.
The test sample (50 mg/kg) was administered from the tail vein at 60 minutes before LPS injection, and the degree of suppression was investigated. The suppression by the test sample is shown in the ratio relative to the suppression in the control group.
Suppression (%)=100-(TNR amount of group treated with test sample/TNF amount of control group)×100
The results are shown in Table 89 wherein ** means the presence of significant difference by p<0.01 from the control group.

The test system of experiment [3] is ALT in blood. Kind of experiment: Suppression of LPS/D-galactosamine-induced hepatitis. The class given is in vivo. Particulars: Mus musculus, iv, tail vein, 10 minutes before LPS/D-galactosamine, ALT in blood at 6 hours, male C57BL/6 mice. Here is the method: Suppression of LPS/D-galactosamine-induced hepatitis
LPS (5 μg/kg)D-galactosamine (500 mg/kg) in physiological saline was intraperitoneally injected to male C57BL/6 mice to induce hepatitis. Six hours after the injection of LPS/D-galactosamine in physiological saline, blood was taken from the mice orbital venosus plexus. Plasma was separated from the blood, and ALT in blood was determined by a biochemical analyzer. The test sample was administered from the tail vein at 10 minutes before the injection of LPS/D-galactosamine in physiological saline, and the degree of suppression was investigated. The suppression by the test sample is shown in the ratio relative to the suppression in the control group.
Suppression (%)=100-(ALT amount of group treated with test sample/ALT amount of control group)×100

Experiment [4] deals with TNF-α. Kind of experiment: Suppression of production of inflammatory cytokines: TNF-α in LPS-stimulated human peripheral blood monocytes (ELISA). The class given is cell-based. Particulars: Monocyte, read-out: IC50 (μM) TNF. How it is done: as §1, §2
Experiment [5] concerns IL-8. Kind of experiment: Suppression of production of inflammatory cytokines: IL-8 in LPS-stimulated human peripheral blood monocytes (ELISA). The class given is cell-based. Particulars: supernatant 20 hours after LPS. Here is the method: as §1, §2
[6] abbreviates: LPS-stimulated human peripheral blood monocytes, supernatant 20 hours after LPS, ELISA.

As for `CNCCCCOc1c(Cl)cc(C(=O)N[C@@H](Cc2ccccc2)C(=O)OC)c(O)c1Cl.Cl` [Example 1, N-[3,5-Dichloro-2-hydroxy-4-(4-methylaminobutoxy)benzoyl]-L-phenylalanine methyl ester hydrochloride], the IC50 in experiment [1] (Homo sapiens, 20 h) was 0.002 µM; in experiment [4] (Homo sapiens, 20 h), 0.008 µM; in experiment [5] (Monocyte) it was 0.009 µM. Further, the “Inhibition (%)” value in experiment [2] was 64** %. For the same compound, in experiment [3] (dose 5 mg/kg), at 5 mg/kg the inhibition in vivo was 88%. For the same compound, the inhibition in vivo at 10 mg/kg in experiment [3] was 78%.
On to `COC(=O)[C@H](Cc1ccccc1)NC(=O)c1ccc(OCCCCN)cc1O.Cl` [Example 4], for which the IC50 in experiment [1] (setting [6]) is 3 µM; in experiment [4] (setting [6]), 2 µM; in experiment [5] (Homo sapiens, Monocyte, 20 h) it was 2 µM. For the same compound, the “Inhibition (%)” value in experiment [2] is 38** %. The compound further displayed an inhibition in vivo at 10 mg/kg in experiment [3] of 42%.
In the case of `CNCCCCOc1cc(O)c(C(=O)N[C@@H](Cc2ccccc2)C(=O)OC)cc1Cl.Cl` [Example 9], the “Inhibition (%)” value in experiment [2] is given as 21%. Moreover, the IC50 in experiment [5] (Homo sapiens, Monocyte, 20 h) was less than 0.3 µM.
On to `CCOC(=O)C(Cc1ccccc1)NC(=O)c1cc(Cl)c(OCCCCN)c(Cl)c1O.Cl` (stereo not drawn) [Example 19], for which the “Inhibition (%)” value in experiment [2] is 32** %. The IC50 in experiment [5] (Homo sapiens, Monocyte, 20 h) was less than 0.01 µM.
For `CCSC(=O)C(Cc1ccccc1)NC(=O)c1cc(Cl)c(OCCCCN)c(Cl)c1O.Cl` (stereo not drawn) [Example 52], in experiment [2], the “Inhibition (%)” value is 31** %. In addition, the IC50 in experiment [5] (Homo sapiens, Monocyte, 20 h) is less than 0.01 µM.
As to `CCOC(=O)[C@H](Cc1ccccc1)NC(=O)c1ccc(-c2noc(CCCCNC)n2)cc1O.Cl` [Example 148, (2S)-3-Phenyl-2-[4-[5-(4-methylaminobutyl)-1,2,4-oxadizol-3-yl]-2-hydroxybenzoylamino]propionic acid ethyl ester hydrochloride], the “Inhibition (%)” value in experiment [2] worked out at 19%. The same compound came in with an IC50 in experiment [5] of 4 µM.
Regarding `CCOC(=O)[C@H](Cc1ccccc1)NC(=O)c1cc(Cl)c(OC(=O)CCN2CCNCC2)c(Cl)c1O` [Example 155, N-[3,5-Dichloro-2-hydroxy-4-(3-piperazinylpropionyloxy)benzoyl]-L-phenylalanine ethyl ester dihydrochloride], in experiment [2], the “Inhibition (%)” value is given as 28** %. For the same compound, in experiment [5] (Monocyte), the IC50 stood at 0.2 µM.
